# Measured values taken from patent publication US9486507B2, “Pro-coagulant compounds and methods of use thereof” (priority 2011, dated 2016).
# Values joined by “and” are separate entries in the source; they are usually repeats but may differ in a detail not shown here. Equal entries are not always repeated.
# Assays:
# [1] = target: T1, FIXa (Homo sapiens, UniProt P00740); assay: FXa generation assay with human FIXa; format: biochemical; set-up: purchased Haematologic Technologies
# Text: FXa generation was utilized to assess the capability of the compounds of the present disclosure to enhance the catalytic activities of FIXa and/or FVIIa.
# To measure the catalytic activity of FIXa, FIXa was mixed with FX and phospholipids in the presence of calcium chloride. Under these conditions FIXa cleaves the zymogen FX into the active form FXa.
# The generation of FXa is monitored by the change in absorbance of the reaction at 405 nm due to the presence of a cleavable FXa chromogenic substrate (S-2765; Z-D-Arg-Gly-Arg-pNA; cleavage of p-nitroaniline). […] The kit contains all the FXa generation components, however, FIXa and FX obtained from this kit are from a bovine origin and were replaced with purified human FIXa or human FVIIa and human FX (Haematologic Technologies).
# The assay was also modified to enhance the screening throughput. Instead of the sequential addition, all the assay components were mixed and added simultaneously to the purified compound to be assayed. A 125 μl reaction mix of the assay components was prepared in the buffer supplied by the manufacturer (50 mM Tris 7.3, and 1% BSA). […] The reaction mix (125 ul) was then added to 25 ul of compound diluted in water in a Costar-3651 flat bottom 96-well plate. […] The absorbance was monitored over a period of 1 hour at 405 nm using a plate reader (Synergy 2, Biotek).
# The 405 nm absorbance data were then analyzed to obtain the slope of the first derivative which reflects the rate of change in absorbance. The first derivative slope data for each compound concentration were plotted against the compound concentration and fitted to a four-parameter equation to obtain the EC50 and Vmax values for each compound tested.
# [2] = test system: platelets; assay: Platelet aggregation (aggregometer); format: cell-based
# Text: ADP was used as a positive control for platelet aggregation.
# [3] = target: T2, FVIIa (Homo sapiens, UniProt P08709); assay: FXa generation assay with human FVIIa; format: biochemical; details: absence of PL
# T2 construct: The two-chain Factor VIIa is a polypeptide produced from FVII by hydrolysis of the Arg152-Ile153 peptide bond of FVII; purchased Haematologic Technologies
# T2 sequence (P08709 61-212 limits assumed): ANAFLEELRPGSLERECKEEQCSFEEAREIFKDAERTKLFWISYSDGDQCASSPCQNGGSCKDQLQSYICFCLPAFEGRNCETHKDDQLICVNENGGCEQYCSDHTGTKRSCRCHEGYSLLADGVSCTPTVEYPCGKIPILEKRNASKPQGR
# T2 sequence (P08709 213-466 limits assumed): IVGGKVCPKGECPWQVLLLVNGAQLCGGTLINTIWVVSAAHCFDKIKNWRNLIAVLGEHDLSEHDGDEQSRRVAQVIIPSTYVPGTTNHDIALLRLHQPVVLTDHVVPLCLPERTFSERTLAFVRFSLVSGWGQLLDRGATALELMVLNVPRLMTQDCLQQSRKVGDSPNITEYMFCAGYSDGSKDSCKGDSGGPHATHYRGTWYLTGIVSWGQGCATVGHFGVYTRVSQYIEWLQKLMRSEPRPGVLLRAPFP
# Method: Similarly, in order to measure the catalytic activity of FVIIa, a FXa generation assay measuring the ability of the compounds of the present disclosure to enhance the catalytic activity of FVIIa was established. The difference between the two assays was that the final concentration of 10 nM hFIXa was replaced with 10 nM hFVIIa. The remaining reagents and assay procedures described above were unchanged.
# [4] = target: T1, FIXa; assay: Heparin accelerated FIXa-AT complex formation assay; format: biochemical; set-up: purchased Haematologic Technologies; details: with heparin, 0 min
# [5] = target: α-thrombin (Homo sapiens, UniProt P00734); assay: Fibrin generation assay (thrombin activity); format: biochemical; details: compound 5 1 uM; α-thrombin 0 or 0.1 IU/mL
# Method: The generation of fibrin was determined by measuring the absorbance at OD405 with the Biotek Synergy 2 multi-detection microplate reader.
# [6] = test system: FVIII deficient human plasma; assay: Thrombin generation assay (TGA) in FVIII-deficient plasma; format: biochemical; details: for Thrombin Above Baseline (nM): HRF FVIII-deficient plasma (1)
# [7] = target: T3, FXa or the prothrombinase complex (Homo sapiens, UniProt P00742); assay: FXa / prothrombinase activity in purified thrombin generation assay; format: biochemical; details: 1 μM; FXa 0.05 ug/mL, with or without FV
# T3 construct: Under these conditions FIXa cleaves the zymogen FX into the active form FXa
# Method: In another experiment it was determined whether or not the compounds of the present disclosure directly enhance the activity of FXa or the prothrombinase complex.
# [8] = test system: FIX-deficient human plasma; assay: ROTEM in FIX-deficient human plasma; format: biochemical
# Method: Compounds of the present disclosure were tested by rotational thromboelastometry to evaluate coagulation parameters such as clotting time (CT), α-angle, clot formation time (CFT), maximum clot firmness (MCF). Briefly, lyophilized and citrated FVIII deficient human plasma (Siemens) was reconstituted with 1 mL of distilled water, allowed to stand for 20 min at RT and mixed well before use. Alternatively, an aliquot of citrated (non-lyophilized) FVIII deficient human plasma (HRF, George King, Precision Biologics, or real-time donors) was thawed for 10 min in a 37° C. water bath and when needed centrifuged at 2800 g for 5 min at 25° C. FVIII deficient plasma was spiked with lyophilized platelets (Helena Laboratories, final concentration 0.5×10^8 cells/ml) and compounds, FVIII, or both compound and FVIII. Dilutions of compounds of the present disclosure and controls, such as FVIII, were prepared in PBS (—Ca, —Mg). Next, 300 μl of the spiked plasma was transferred to a ROTEM cup already containing 20 μl of StarTEM (concentrated calcium chloride solution) and 20 μl of lipidated TF (American Diagnostica, final concentration 10 fM) or Kaolin (Sigma-Aldrich, final concentration 0.4 μg/ml) and recording was initiated. The cups were maintained at 37° C. during the testing.
# [9] = FIX-deficient plasma (containing platelets), 10 μM
# [10] = FIX-deficient plasma, compound 5 2.5 μM + FIX-Fc 0.25 IU/mL
# [11] = human HemB plasma, lyophilized platelets, 10 fM TF, 5 μM
# [12] = human HemB plasma, lyophilized platelets, 10 fM TF, 10 μM
# [13] = human HemB plasma, 5 μM, anti-FIX pab +
# [14] = human HemB plasma, 5 μM, anti-FIX pab −
# [15] = human HemB plasma, 10 μM, anti-FIX pab −
# T1 sequence (P00740 47-191 limits assumed): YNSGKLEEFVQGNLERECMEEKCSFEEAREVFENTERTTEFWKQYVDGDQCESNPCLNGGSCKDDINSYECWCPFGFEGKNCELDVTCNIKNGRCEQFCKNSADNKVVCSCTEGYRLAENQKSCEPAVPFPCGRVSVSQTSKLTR
# T1 sequence (P00740 227-461 limits assumed): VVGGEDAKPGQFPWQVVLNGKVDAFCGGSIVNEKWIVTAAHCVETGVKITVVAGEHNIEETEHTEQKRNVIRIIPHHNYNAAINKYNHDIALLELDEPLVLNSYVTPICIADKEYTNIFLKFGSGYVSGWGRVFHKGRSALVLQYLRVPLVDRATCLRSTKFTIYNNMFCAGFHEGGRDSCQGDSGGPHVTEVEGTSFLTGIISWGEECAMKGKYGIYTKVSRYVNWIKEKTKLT
# T3 sequence (P00742 41-179 limits assumed): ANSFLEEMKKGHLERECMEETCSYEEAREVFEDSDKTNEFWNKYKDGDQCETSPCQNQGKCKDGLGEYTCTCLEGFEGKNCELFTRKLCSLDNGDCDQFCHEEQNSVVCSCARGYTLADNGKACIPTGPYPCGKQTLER
# T3 sequence (P00742 235-488 limits assumed): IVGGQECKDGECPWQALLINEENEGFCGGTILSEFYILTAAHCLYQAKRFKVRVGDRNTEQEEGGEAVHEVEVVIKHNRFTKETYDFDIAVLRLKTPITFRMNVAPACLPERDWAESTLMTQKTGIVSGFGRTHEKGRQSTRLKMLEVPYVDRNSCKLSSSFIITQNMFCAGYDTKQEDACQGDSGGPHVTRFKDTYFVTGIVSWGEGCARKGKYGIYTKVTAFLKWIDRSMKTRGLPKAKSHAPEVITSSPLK
substance,measurement,setting,value
rRAPGKLTCLASYCWLFWTGIA [Compound 5],Vmax,"[1]; FXa generation assay, 10 nM hFIXa, 100 nM hFX, class symbols",(+++) ((+++)>2)
same,"increase of FIXa catalytic activity, % of control",[1]; absence of PL,about 80%
same,effect on ADP-activated platelets,[2]; 30 μM,only a moderate effect
same,induction of platelet aggregation,"[2]; compound 5 about 30 μM, compound 22 10 μM and 30 μM",did not induce platelet aggregation
same,effect on ADP-activated platelets,[2]; concentration of up to 10 μM,did not exhibit a significant effect
same,"increase of FVIIa activity, % of control",[3],about 10%
same,% FIXa-AT complex formation,[4]; Compound 5 0.1 μM,0%
same,% FIXa-AT complex formation,[4]; Compound 5 1 μM,0%
same,% FIXa-AT complex formation,[4]; Compound 5 10 μM,0%
same,"catalytic activity of thrombin (fibrin generation, OD405)",[5],did not substantially increase the catalytic activity of thrombin directly
same,additive effect with FVIII on thrombin generation,"[6]; 0.1 pM lipidated TF, low amounts of rFVIII (FIG. 2)",shows additive thrombin generation activity with FVIII
same,"amount of thrombin generated, as rFVIII equivalent","[6]; 10 μM compound 5, 0.1 pM lipTF",about 0.2 IU/mL
same,"amount of thrombin generated, compared with FVIII","[6]; 5 or 10 μM compound 5, 0.1 pM lipTF",> 0.1 U/mL
same,Thrombin Above Baseline (nM),[6]; 2.5 μM,+ (1-10 nM (1) or 1-29 nM (2) (+))
same,Thrombin Above Baseline (nM),[6]; 5 μM,+ (1-10 nM (1) or 1-29 nM (2) (+))
same,Thrombin Above Baseline (nM),[6]; 10 μM,++ (11-20 nM (1) or 30-59 nM (2) (++))
same,Thrombin Above Baseline (nM),[6]; 20 μM,++ (11-20 nM (1) or 30-59 nM (2) (++))
same,lag time,"[6]; compound 5 at 10 μM and 5 μM, 0.1 pM lipTF (FIG. 3)",shorter lag time than 0.1 or 0.25 U/mL of FVIII
same,catalytic activity of FXa or the prothrombinase complex,[7],did not substantially increase the catalytic activity of FXa or the prothrombinase complex
same,"Clotting time, sec",[8]; [9],"1,311 sec and 1,328 sec"
same,"α-angle, degrees",[8]; [9],15 degrees and 19 degrees
same,Clotting time,[8]; [10],876.5 s
same,α-angle,[8]; [10],39.5 degrees
same,Clotting time,[8]; [11],836 s and 810 s
same,"α-angle, degrees",[8]; [11],24 degrees and 20 degrees
same,Clotting time,[8]; [12],804 s and 773 s
same,"α-angle, degrees",[8]; [12],22 degrees and 21 degrees
same,"Clotting time, sec",[8]; [13],"1,660 sec and 1,661 sec"
same,"α-angle, degrees",[8]; [13],9 degrees
same,"Clotting time, sec",[8]; [14],"1,420 sec and 1,556 sec"
same,"α-angle, degrees",[8]; [14],11 degrees and 12 degrees
same,"α-angle, degrees","[8]; human HemB plasma, 10 μM, anti-FIX pab +",13 degrees and 10 degrees
same,"Clotting time, sec",[8]; [15],"1,182 sec and 1,194 sec"
same,"α-angle, degrees",[8]; [15],12; 12 degrees
